Results as given in US20020150990A1, “Hepatitis C virus peptides” (priority 1992, published 2002).
Ends that are not written are not given here.

System: antibodies against HCV
Test: PEPSCAN analysis of overlapping octameric peptides of the HCV core protein N-terminal region with HCV-seropositive sera
Assay type: binding, human
Conditions: read at 405 nm
From the text: The N-terminal 97 amino acid residues of HCV Core protein SEQ ID NO: 8 was mapped with PEPSCAN analysis. This process involved the serological analysis of sequentially overlapping peptides which spanned the region of interest, to identify epitopic domains. Ninety overlapping octameric peptides were synthesized on polypropylene pin supports according to the manufacturer's instructions (Cambridge Research Biochemicals), such that each peptide overlapped with the preceding sequence by the seven N-terminal residues, and with the subsequent peptide by the seven C-terminal residues. Serum or IgG purified from the serum of individuals confirmed to be seropositive for HCV were used to screen the peptides.
The assay procedure followed was performed basically as described in the manufacturers instruction manual. The time and temperature of the test antibody incubation differed from that prescribed, thereby decreasing the time taken for each assay.
Sera: A total of 16 sera were assayed by PEPSCAN. These consisted of 12 sera from paid U.S. Donors which were identified as being positive for antibodies against HCV in routine screening at the site of donation. The remaining four sera were from patients diagnosed as having non-A non-B hepatitis, and which were subsequently shown to contain antibodies to HCV. Sera were screened either as the crude serum fraction, or as a caprylic acid preparation. Caprylic acid purification of IgG from the sera was performed as described by Stienbuch and Audran (1969) Arch. Biochem. Biophys. 134, 279-284.
Assay: The assay format involves sequentially incubating the various pins in microwell plates containing blocking, test antibody, conjugate, and substrate solutions. The immune complex builds up on the pin with the enzyme labelled conjugate being immobilized on the bound anti-peptide antibody from the test serum. When the pin is then immersed in substrate, the enzyme brings about the colour change which is used to quantify the amount of anti-peptide antibody bound.
Blocking: Pins are immersed in 200 μl of Supercocktail (1% Ovalbumin, 1% bovine serum albumin in 0.15M phosphate buffered saline pH 7.2—0.1% Tween 20) and left to stand at room temperature for 1 hour.
Test antibody: The test antibody is diluted between 1/200 (IgG) and 1/1000 (serum) in supercocktail. The pins are then stood in this solution (175 μl/well) at 37° C. for 1 hour. After this incubation the pins are washed four times in 0.15M phosphate buffered saline pH 7.2—0.05% Tween 20, each at room temperature for 10 minutes.
Conjugate: Rabbit anti-human IgG coupled to horseradish peroxidase is diluted 1/1000 in supercocktail. The peptide bearing pins are then stood in this solution at room temperature for 1 hour. Once again the pins are then washed four times as above.
Substrate: The substrate solution is made up fresh for each assay. To 100 ml of 0.1M phosphate, 0.08M citrate buffer pH 4.0 is dissolved 50 mg of 2,2′-AZINO-bis (3-ethylbenzthiazo-linsulphonic acid (ABTS) and 0.3 μl/ml 30% hydrogen peroxide is added. The pins are immersed in the wells containing substrate solution (150 μl/well) and incubated at room temperature in the dark. Once sufficient colour has developed the reaction is stopped by removing the pins. The plates are then read immediately in a spectrophotometric plate reader at a wavelength of 405 nm. The absorbance values are then plotted against pin number. The epitopic domains are then defined as the continuous sequence of amino acids common to all positive pins in the domain i.e.

Sequence	Absorbance Units for different sera (serum 65221)	Absorbance Units for different sera (serum 65234)	Absorbance Units for different sera (serum 65241)	Absorbance Units for different sera (serum 65276)	Absorbance Units for different sera (serum L)
GGGQIVGG (pin support) [overlapping octameric peptide of HCV core protein on pin support]	137 Absorbance Units	134 Absorbance Units	121 Absorbance Units	127 Absorbance Units	121 Absorbance Units
GGQIVGGV (pin support) [overlapping octameric peptide of HCV core protein on pin support]	323 Absorbance Units	179 Absorbance Units	122 Absorbance Units	119 Absorbance Units	119 Absorbance Units
GGVYLLPR (pin support) [overlapping octameric peptide of HCV core protein on pin support]	132 Absorbance Units	344 Absorbance Units	311 Absorbance Units	246 Absorbance Units	191 Absorbance Units
GPRLGVRA (pin support) [overlapping octameric peptide of HCV core protein on pin support]	111 Absorbance Units	75 Absorbance Units	60 Absorbance Units	146 Absorbance Units	101 Absorbance Units
GQIVGGVY (pin support) [overlapping octameric peptide of HCV core protein on pin support]	216 Absorbance Units	165 Absorbance Units	112 Absorbance Units	128 Absorbance Units	138 Absorbance Units
GVYLLPRR (also: pin support) [Gly-Val-Tyr-Leu-Leu-Pro-Arg-Arg, overlapping octameric peptide of HCV core protein on pin support]	613 Absorbance Units	229 Absorbance Units	511 Absorbance Units	350 Absorbance Units	378 Absorbance Units
IVGGVYLL (pin support) [overlapping octameric peptide of HCV core protein on pin support]	268 Absorbance Units	186 Absorbance Units	126 Absorbance Units	183 Absorbance Units	158 Absorbance Units
LLPRRGPR (pin support) [overlapping octameric peptide of HCV core protein on pin support]	142 Absorbance Units	101 Absorbance Units	129 Absorbance Units	98 Absorbance Units	133 Absorbance Units
LPRRGPRL (pin support) [overlapping octameric peptide of HCV core protein on pin support]	97 Absorbance Units	145 Absorbance Units	94 Absorbance Units	139 Absorbance Units	148 Absorbance Units
PRLGVRAT (pin support) [overlapping octameric peptide of HCV core protein on pin support]	166 Absorbance Units	88 Absorbance Units	79 Absorbance Units	155 Absorbance Units	115 Absorbance Units
